According to patent publication US12227500B2, “Substituted pyrrolo[2,3-b]pyridines for suppressing toxic endoplasmic reticulum stress” (THE TRUSTEES OF COLUMBIA UNIVERSITY IN THE CITY OF NEW YORK, priority 2018, dated 2025):
Read-outs that look alike come from different tables or passages of the source.

Key:
Assay in all cases: Radiolabeled ATP kinase assay, panel of 371 kinases (Table S6)
Assay type in all cases: biochemical
[1] = target: T1, panel of 371 human kinases (Homo sapiens, UniProt Q9UPZ9); conditions: LCK2/ICK; 0.1 μM; 10 μM ATP; read-out: % Enzyme Activity (relative to DMSO controls)
T1 construct: purchased Reaction Biology Corp
Description: (§1) ; FIG. 38C). […]. Further targeted analyses, such as genetic knock-down or knock-out, may be warranted to parse the role of these additional kinases in our model of neurodegeneration.

[2] = target: T2, panel of 371 human kinases (Homo sapiens, UniProt P07332); conditions: FES/FPS; 0.1 μM; 10 μM ATP; read-out: % Enzyme Activity (relative to DMSO controls)
T2 construct: purchased Reaction Biology Corp
Description: as §1

[3] = target: T3, panel of 371 human kinases (Homo sapiens, UniProt Q8N5S9); conditions: CAMKK1; 0.1 μM; 10 μM ATP; read-out: % Enzyme Activity (relative to DMSO controls)
T3 construct: purchased Reaction Biology Corp
Description: as §1

[4] = target: T4, panel of 371 human kinases (Homo sapiens, UniProt P48730); conditions: CK1d; 0.1 μM; 10 μM ATP; read-out: % Enzyme Activity (relative to DMSO controls)
T4 construct: purchased Reaction Biology Corp
Description: as §1

[5] = target: T5, panel of 371 human kinases (Homo sapiens, UniProt Q13188); conditions: MST2/STK3; 0.1 μM; 10 μM ATP; read-out: % Enzyme Activity (relative to DMSO controls)
T5 construct: purchased Reaction Biology Corp
Description: as §1

[6] = target: T6, panel of 371 human kinases (Homo sapiens, UniProt O94806); conditions: PKCnu/PRKD3; 0.1 μM; 10 μM ATP; read-out: % Enzyme Activity (relative to DMSO controls)
T6 construct: purchased Reaction Biology Corp
Description: as §1

[7] = target: T7, panel of 371 human kinases (Homo sapiens, UniProt Q9Y5S2); conditions: MRCKb/CDC42BPB; 0.1 μM; 10 μM ATP; read-out: % Enzyme Activity (relative to DMSO controls)
T7 construct: purchased Reaction Biology Corp
Description: as §1

[8] = target: T8, panel of 371 human kinases (Homo sapiens, UniProt Q13557); conditions: CAMK2d; 0.1 μM; 10 μM ATP; read-out: % Enzyme Activity (relative to DMSO controls)
T8 construct: purchased Reaction Biology Corp
Description: as §1

[9] = target: T9, panel of 371 human kinases (Homo sapiens, UniProt Q13627); conditions: DYRK1/DYRK1A; 0.1 μM; 10 μM ATP; read-out: % Enzyme Activity (relative to DMSO controls)
T9 construct: purchased Reaction Biology Corp
Description: as §1

[10] = target: T10, panel of 371 human kinases (Homo sapiens, UniProt O14965); conditions: Aurora A; 0.1 μM; 10 μM ATP; read-out: % Enzyme Activity (relative to DMSO controls)
T10 construct: purchased Reaction Biology Corp
Description: as §1

[11] = target: T11, panel of 371 human kinases (Homo sapiens, UniProt Q86V86); conditions: PIM3; 0.1 μM; 10 μM ATP; read-out: % Enzyme Activity (relative to DMSO controls)
T11 construct: purchased Reaction Biology Corp
Description: as §1

[12] = target: T12, panel of 371 human kinases (Homo sapiens, UniProt Q13043); conditions: MST1/STK4; 0.1 μM; 10 μM ATP; read-out: % Enzyme Activity (relative to DMSO controls)
T12 construct: purchased Reaction Biology Corp
Description: as §1

[13] = target: T13, panel of 371 human kinases (Homo sapiens, UniProt P11362); conditions: FGFR1; 0.1 μM; 10 μM ATP; read-out: % Enzyme Activity (relative to DMSO controls)
T13 construct: purchased Reaction Biology Corp
Description: as §1

[14] = target: T14, panel of 371 human kinases (Homo sapiens, UniProt Q9HAZ1); conditions: CLK4; 0.1 μM; 10 μM ATP; read-out: % Enzyme Activity (relative to DMSO controls)
T14 construct: purchased Reaction Biology Corp
Description: as §1

[15] = target: T15, panel of 371 human kinases (Homo sapiens, UniProt Q7KZI7); conditions: MARK2/PAR-1Ba; 0.1 μM; 10 μM ATP; read-out: % Enzyme Activity (relative to DMSO controls)
T15 construct: purchased Reaction Biology Corp
Description: as §1

[16] = target: T16, panel of 371 human kinases (Homo sapiens, UniProt P21802); conditions: FGFR2; 0.1 μM; 10 μM ATP; read-out: % Enzyme Activity (relative to DMSO controls)
T16 construct: purchased Reaction Biology Corp
Description: as §1

[17] = target: T17, panel of 371 human kinases (Homo sapiens, UniProt P07333); conditions: FMS; 0.1 μM; 10 μM ATP; read-out: % Enzyme Activity (relative to DMSO controls)
T17 construct: purchased Reaction Biology Corp
Description: as §1

[18] = target: T18, panel of 371 human kinases (Homo sapiens, UniProt Q9H2K8); conditions: TAOK3/JIK; 0.1 μM; 10 μM ATP; read-out: % Enzyme Activity (relative to DMSO controls)
T18 construct: purchased Reaction Biology Corp
Description: as §1

[19] = target: T19, panel of 371 human kinases (Homo sapiens, UniProt Q00535); conditions: 0.1 μM, 10 μM ATP, read-out: % Enzyme Activity (relative to DMSO controls)
T19 construct: purchased Reaction Biology Corp
Description: as §1

[20] = target: T20, panel of 371 human kinases (Homo sapiens, UniProt P53671); conditions: LIMK2; 0.1 μM; 10 μM ATP; read-out: % Enzyme Activity (relative to DMSO controls)
T20 construct: purchased Reaction Biology Corp
Description: as §1

[21] = target: T21, panel of 371 human kinases (Homo sapiens, UniProt Q9BZL6); conditions: PKD2/PRKD2; 0.1 μM; 10 μM ATP; read-out: % Enzyme Activity (relative to DMSO controls)
T21 construct: purchased Reaction Biology Corp
Description: as §1

[22] = target: T22, panel of 371 human kinases (Homo sapiens, UniProt Q6IQ55); conditions: TTBK2; 0.1 μM; 10 μM ATP; read-out: % Enzyme Activity (relative to DMSO controls)
T22 construct: purchased Reaction Biology Corp
Description: as §1

[23] = target: T23, panel of 371 human kinases (Homo sapiens, UniProt Q96S53); conditions: TESK2; 0.1 μM; 10 μM ATP; read-out: % Enzyme Activity (relative to DMSO controls)
T23 construct: purchased Reaction Biology Corp
Description: as §1

[24] = target: T24, panel of 371 human kinases (Homo sapiens, UniProt Q8NG66); conditions: NEK11; 0.1 μM; 10 μM ATP; read-out: % Enzyme Activity (relative to DMSO controls)
T24 construct: purchased Reaction Biology Corp
Description: as §1

T19 sequence (Q00535 whole entry): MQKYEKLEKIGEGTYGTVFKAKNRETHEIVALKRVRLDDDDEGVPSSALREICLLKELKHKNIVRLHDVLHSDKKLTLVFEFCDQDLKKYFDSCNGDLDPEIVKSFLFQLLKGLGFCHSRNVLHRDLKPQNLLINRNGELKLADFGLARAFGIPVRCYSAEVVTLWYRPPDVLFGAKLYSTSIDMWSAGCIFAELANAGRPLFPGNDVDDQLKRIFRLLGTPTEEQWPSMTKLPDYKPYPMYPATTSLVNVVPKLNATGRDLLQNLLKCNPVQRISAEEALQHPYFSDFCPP
T15 sequence (Q7KZI7 whole entry): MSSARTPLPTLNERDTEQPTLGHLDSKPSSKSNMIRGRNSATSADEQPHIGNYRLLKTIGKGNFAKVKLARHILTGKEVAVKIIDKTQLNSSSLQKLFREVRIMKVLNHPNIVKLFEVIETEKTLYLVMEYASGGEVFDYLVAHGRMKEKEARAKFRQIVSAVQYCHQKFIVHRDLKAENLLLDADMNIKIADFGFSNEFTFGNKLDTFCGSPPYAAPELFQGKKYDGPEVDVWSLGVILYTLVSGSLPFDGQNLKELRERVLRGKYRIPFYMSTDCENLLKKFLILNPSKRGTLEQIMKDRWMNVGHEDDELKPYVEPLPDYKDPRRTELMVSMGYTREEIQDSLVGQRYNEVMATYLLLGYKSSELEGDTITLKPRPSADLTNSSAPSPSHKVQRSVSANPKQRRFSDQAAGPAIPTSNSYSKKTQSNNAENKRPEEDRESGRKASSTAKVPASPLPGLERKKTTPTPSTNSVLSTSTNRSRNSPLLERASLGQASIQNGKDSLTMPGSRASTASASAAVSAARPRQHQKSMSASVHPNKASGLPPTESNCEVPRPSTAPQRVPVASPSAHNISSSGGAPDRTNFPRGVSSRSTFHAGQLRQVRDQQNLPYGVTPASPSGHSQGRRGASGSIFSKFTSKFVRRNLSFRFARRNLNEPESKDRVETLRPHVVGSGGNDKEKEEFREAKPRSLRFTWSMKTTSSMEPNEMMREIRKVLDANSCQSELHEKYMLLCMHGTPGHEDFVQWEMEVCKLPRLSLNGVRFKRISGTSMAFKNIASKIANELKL
T22 sequence (Q6IQ55 whole entry): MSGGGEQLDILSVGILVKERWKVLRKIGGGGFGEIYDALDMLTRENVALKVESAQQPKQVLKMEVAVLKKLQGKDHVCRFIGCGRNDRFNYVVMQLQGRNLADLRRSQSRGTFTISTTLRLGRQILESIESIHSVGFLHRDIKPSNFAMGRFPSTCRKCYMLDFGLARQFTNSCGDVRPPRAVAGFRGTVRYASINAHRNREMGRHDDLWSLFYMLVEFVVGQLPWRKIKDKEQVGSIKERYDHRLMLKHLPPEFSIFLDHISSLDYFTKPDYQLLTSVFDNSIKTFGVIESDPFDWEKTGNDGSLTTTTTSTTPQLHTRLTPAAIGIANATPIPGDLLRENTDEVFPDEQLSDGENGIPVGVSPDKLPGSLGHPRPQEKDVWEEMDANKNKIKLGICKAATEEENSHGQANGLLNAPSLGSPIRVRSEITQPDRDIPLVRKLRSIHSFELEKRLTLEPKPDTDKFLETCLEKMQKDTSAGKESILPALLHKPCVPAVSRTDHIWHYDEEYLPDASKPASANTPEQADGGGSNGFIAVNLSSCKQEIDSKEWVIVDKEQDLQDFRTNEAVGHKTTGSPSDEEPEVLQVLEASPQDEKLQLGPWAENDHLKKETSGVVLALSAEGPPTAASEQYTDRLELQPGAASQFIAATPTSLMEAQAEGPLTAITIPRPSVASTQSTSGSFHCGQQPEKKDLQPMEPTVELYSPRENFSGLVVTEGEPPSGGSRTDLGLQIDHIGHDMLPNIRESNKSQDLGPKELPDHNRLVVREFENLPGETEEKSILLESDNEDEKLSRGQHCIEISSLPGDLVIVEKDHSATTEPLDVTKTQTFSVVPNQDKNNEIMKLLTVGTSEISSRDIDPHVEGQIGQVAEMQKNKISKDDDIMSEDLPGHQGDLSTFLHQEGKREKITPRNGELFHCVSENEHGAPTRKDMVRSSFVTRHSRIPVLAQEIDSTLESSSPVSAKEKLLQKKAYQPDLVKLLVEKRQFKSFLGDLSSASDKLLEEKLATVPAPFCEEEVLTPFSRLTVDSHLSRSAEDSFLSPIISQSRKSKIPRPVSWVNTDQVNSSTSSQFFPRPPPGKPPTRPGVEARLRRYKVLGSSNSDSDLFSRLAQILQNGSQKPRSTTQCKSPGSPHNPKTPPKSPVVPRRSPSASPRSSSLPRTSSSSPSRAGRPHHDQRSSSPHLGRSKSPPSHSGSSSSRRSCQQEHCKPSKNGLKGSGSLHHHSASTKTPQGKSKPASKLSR
T5 sequence (Q13188 whole entry): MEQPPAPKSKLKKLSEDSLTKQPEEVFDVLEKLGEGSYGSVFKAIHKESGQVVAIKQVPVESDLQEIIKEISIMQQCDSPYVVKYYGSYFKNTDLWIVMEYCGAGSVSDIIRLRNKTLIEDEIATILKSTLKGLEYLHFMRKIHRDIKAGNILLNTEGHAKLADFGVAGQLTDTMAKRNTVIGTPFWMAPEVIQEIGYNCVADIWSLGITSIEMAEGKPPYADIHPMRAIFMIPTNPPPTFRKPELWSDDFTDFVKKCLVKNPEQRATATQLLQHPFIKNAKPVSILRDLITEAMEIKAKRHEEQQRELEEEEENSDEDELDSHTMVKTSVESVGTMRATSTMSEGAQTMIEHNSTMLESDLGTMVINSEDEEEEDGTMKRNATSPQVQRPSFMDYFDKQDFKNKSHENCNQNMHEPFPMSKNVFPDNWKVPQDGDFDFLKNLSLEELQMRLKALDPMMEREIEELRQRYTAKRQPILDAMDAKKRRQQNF
T3 sequence (Q8N5S9 whole entry): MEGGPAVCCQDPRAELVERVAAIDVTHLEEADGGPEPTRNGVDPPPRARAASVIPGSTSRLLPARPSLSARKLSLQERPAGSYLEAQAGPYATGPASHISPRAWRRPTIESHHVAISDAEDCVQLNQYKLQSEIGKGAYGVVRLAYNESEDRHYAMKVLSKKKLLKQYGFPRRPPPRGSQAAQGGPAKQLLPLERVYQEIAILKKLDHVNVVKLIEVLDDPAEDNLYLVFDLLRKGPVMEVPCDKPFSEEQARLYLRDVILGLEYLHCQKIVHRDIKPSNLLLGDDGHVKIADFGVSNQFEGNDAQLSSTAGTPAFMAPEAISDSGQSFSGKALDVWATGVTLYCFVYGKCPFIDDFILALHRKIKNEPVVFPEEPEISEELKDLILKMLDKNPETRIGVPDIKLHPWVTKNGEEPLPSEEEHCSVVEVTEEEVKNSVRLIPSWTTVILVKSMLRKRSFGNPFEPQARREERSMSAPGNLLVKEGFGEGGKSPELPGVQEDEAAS
T23 sequence (Q96S53 whole entry): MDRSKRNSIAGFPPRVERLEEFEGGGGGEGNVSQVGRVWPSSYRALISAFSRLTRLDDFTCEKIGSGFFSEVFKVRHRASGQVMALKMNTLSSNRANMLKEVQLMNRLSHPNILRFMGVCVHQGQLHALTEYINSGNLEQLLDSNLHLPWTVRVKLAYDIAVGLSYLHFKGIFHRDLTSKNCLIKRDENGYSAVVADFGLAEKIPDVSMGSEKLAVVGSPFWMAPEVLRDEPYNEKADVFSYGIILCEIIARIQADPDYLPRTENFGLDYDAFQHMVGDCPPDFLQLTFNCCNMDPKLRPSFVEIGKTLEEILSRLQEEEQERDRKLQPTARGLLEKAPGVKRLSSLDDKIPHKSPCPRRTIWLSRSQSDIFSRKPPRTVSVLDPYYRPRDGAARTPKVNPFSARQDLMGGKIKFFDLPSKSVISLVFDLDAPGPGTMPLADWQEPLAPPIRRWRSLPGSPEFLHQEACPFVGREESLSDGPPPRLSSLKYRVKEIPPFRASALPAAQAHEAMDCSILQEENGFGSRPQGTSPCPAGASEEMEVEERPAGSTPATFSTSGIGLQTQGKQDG
T13 sequence (P11362 22-822): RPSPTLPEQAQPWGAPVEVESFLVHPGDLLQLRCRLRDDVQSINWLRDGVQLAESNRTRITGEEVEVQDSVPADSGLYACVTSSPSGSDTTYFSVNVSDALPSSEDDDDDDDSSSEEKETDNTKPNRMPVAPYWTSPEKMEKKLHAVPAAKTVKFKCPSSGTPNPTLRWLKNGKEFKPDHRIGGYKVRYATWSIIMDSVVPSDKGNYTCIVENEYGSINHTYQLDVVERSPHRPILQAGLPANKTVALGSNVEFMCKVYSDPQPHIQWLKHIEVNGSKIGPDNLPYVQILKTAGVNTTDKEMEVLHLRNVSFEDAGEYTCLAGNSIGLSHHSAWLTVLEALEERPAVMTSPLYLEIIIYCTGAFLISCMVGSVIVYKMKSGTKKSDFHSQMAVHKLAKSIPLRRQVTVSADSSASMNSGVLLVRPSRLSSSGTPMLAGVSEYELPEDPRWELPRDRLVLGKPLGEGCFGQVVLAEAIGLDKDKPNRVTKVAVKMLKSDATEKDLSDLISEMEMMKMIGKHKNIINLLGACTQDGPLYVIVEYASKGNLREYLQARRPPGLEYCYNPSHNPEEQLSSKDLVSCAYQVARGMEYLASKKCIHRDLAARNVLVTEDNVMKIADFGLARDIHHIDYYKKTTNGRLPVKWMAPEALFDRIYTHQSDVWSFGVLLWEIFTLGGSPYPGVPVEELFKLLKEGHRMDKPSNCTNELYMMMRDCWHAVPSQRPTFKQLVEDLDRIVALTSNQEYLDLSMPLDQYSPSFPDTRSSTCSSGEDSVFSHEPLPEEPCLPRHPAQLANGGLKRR

Compound	remaining activity at 0.1 µM [1]	remaining activity at 0.1 µM [2]	remaining activity at 0.1 µM [3]	remaining activity at 0.1 µM [4]	remaining activity at 0.1 µM [5]	remaining activity at 0.1 µM [6]	remaining activity at 0.1 µM [7]	remaining activity at 0.1 µM [8]	remaining activity at 0.1 µM [9]	remaining activity at 0.1 µM [10]	remaining activity at 0.1 µM [11]	remaining activity at 0.1 µM [12]	remaining activity at 0.1 µM [13]	remaining activity at 0.1 µM [14]	remaining activity at 0.1 µM [15]	remaining activity at 0.1 µM [16]	remaining activity at 0.1 µM [17]	remaining activity at 0.1 µM [18]	remaining activity at 0.1 µM ([19]; CDK5/p25)	remaining activity at 0.1 µM ([19]; CDK5/p35)	further results
CN1CCN(Cc2ccc(-c3cnc4[nH]cc(-c5ccc6[nH]ccc6c5)c4c3)cc2)CC1 [Compound 1, 3-(1H-Indol-5-yl)-5-(4-((4-methylpiperazin-1-yl)methyl)phenyl)-1H-pyrrolo[2,3-b]pyridine, reference compound]	111%	68.2%	103%	90%	102%	29.1%	100%	97%	52.4%	95.2%	92.9%	80%	93.9%	94.5%	78%	79.9%	85.4%	87.3%	79.7%	81.3%	remaining activity at 0.1 µM [20]: 103%; remaining activity at 0.1 µM [21]: 23.2%; remaining activity at 0.1 µM [22]: 101%; remaining activity at 0.1 µM [23]: 112%; remaining activity at 0.1 µM [24]: 107%
OCCN1CCN(Cc2ccc(-c3cnc4[nH]cc(-c5cccc(Cl)c5)c4c3)cc2)CC1 [Compound 12k, 2-(4-(4-(3-(3-Chlorophenyl)-1H-pyrrolo[2,3-b]pyridin-5-yl)benzyl)piperazin-1-yl)ethan-1-ol]	109%	77.9%	102%	92.8%	86%	13.6%	89%	81.3%	40.7%	104%	106%	75.9%	95%	71.9%	51.7%	89.5%	26.8%	79.8%	75.9%	79.2%	remaining activity at 0.1 µM [20]: 101%; remaining activity at 0.1 µM [21]: 9.36%; remaining activity at 0.1 µM [22]: 103%; remaining activity at 0.1 µM [23]: 92.7%; remaining activity at 0.1 µM [24]: 101%
